target: T1, Edg-1/S1P1 receptor (Homo sapiens, UniProt P21453); assay: In vitro cell based receptor activation assay - Transfluor assay (assay I or II; beta-arrestin GFP relocalization after S1P stimulation); details: at 3.50 μM (titrated from top concentration 10 μM)
T1 construct: expressed in transfected cells; host or cells: human osteogenic sarcoma U2OS cells: Edg-1 Transfluor U2OS WT Clone #37 (assay I), Edg-1 Transfluor U2OS Clone #3 (assay II)
Outline: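 U2OS cells overexpressing S1P1 with a beta-arrestin-GFP construct were pre-incubated with compound for 15 min at room temperature, then stimulated with S1P for 45 min at 37 °C. In assay I, final S1P was 375 nM or 750 nM and compound was a 9-point 3-fold series from 100 μM, in 1% DMSO. Cells were fixed and Hoechst-stained, GFP relocalization was imaged, and EC50 values were fitted.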

T1 sequence (P21453 whole entry): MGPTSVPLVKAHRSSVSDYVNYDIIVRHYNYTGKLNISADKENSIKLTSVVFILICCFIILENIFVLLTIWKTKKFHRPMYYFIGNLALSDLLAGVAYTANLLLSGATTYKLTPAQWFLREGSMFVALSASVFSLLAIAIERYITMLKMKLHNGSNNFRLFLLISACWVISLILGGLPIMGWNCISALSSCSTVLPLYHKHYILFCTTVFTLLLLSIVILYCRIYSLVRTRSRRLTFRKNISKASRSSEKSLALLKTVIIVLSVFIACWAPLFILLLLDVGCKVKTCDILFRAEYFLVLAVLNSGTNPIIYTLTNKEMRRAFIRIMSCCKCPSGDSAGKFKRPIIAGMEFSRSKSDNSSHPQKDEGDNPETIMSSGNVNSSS

Row | SMILES | inhibition at 3.5 µM
1 | CCn1c([C@@H](C)NS(=O)(=O)c2cccc(Cl)c2)nc2ccc(C(F)(F)F)cc21 [Example 123, 3-Chloro-N-{(1R)-1-[1-ethyl-6-(trifluoromethyl)-1H-benzimidazol-2-yl]ethyl}benzenesulfonamide] | 96.7%
2 | CCn1c([C@@H](C)NS(=O)(=O)c2ccc(OC)c(OC)c2)nc2ccc(C(F)(F)F)cc21 [Example 124, N-{(1R)-1-[1-Ethyl-6-(trifluoromethyl)-1H-benz-imidazol-2-yl]ethyl}-3,4-di-methoxybenzenesulfonamide] | 79.4%
3 | CCn1c([C@@H](C)NS(=O)(=O)c2ccccn2)nc2ccc(C(F)(F)F)cc21 [Example 125, N-{(1R)-1-[1-Ethyl-6-(trifluoromethyl)-1H-benzimidazol-2-yl]ethyl}pyridine-2-sulfonamide] | 14.9%
4 | CCn1c([C@@H](C)NS(=O)(=O)c2cccnc2)nc2ccc(C(F)(F)F)cc21 [Example 126, (R)—N-(1-(1-ethyl-6-(trifluoromethyl)-1H-benzo[d]imidazol-2-yl)ethyl)pyridine-3-sulfonamide] | 92.8%
5 | CCn1c([C@@H](C)NS(=O)(=O)c2ccncc2)nc2ccc(C(F)(F)F)cc21 [Example 127, (R)-N-(1-(1-Ethyl-6-(trifluoromethyl)-1H-benzo[d]imidazol-2-yl)ethyl)pyridine-4-sulfonamide] | 86.4%
6 | CCn1c([C@@H](C)NS(=O)(=O)c2cnc(NN)c(Cl)c2)nc2ccc(C(F)(F)F)cc21 [Example 128, R-5-chloro-N-(1-(1-ethyl-6-(trifluoromethyl)-1H-benzo[d]imidazol-2-yl)ethyl)-6-hydrazinylpyridine-3-sulfonamide] | 94.5%
7 | CCn1c([C@@H](C)NS(=O)(=O)c2cncc(Cl)c2)nc2ccc(C(F)(F)F)cc21 [Example 129, R-5-chloro-N-(1-(1-ethyl-6-(trifluoromethyl)-1H-benzo[d]imidazol-2-yl)ethyl)pyridine-3-sulfonamide] | 90.3%
8 | CCn1c(C(C)NS(=O)(=O)c2ccc(CN3CCOCC3)cc2)nc2ccc(C(F)(F)F)cc21 (stereo not shown) [Example 130, N-(1-(1-ethyl-6-(trifluoromethyl)-1H-benzo[d]imidazol-2-yl)ethyl)-4-(morpholinomethyl)benzenesulfonamide] | 10.8%
9 | CCn1c([C@@H](C)NS(=O)(=O)c2ccc(S(C)(=O)=O)cc2)nc2ccc(C(F)(F)F)cc21 [Example 131, (R)-N-(1-(1-Ethyl-6-(trifluoromethyl)-1H-benzo[d]imidazol-2-yl)ethyl)-4-(methylsulfonyl)-benzenesulfonamide] | 95%
10 | CCn1c([C@@H](C)NS(=O)(=O)c2ccc(F)cc2)nc2cnc(OC)cc21 [Example 132, (R)-N-(1-(1-Ethyl-6-methoxy-1H-imidazo[4,5-c]pyridin-2-yl)ethyl)-4-fluorobenzenesulfonamide] | 86.2%
11 | C#Cc1ccc(S(=O)(=O)N[C@H](C)c2nc3ccc(C(F)(F)F)cc3n2CC)cn1 [Example 133, (R)-N-(1-(1-Ethyl-6-(trifluoromethyl)-1H-benzo[d]imidazol-2-yl)ethyl)-6-ethynylpyridine-3-sulfonamide] | 86.4%
12 | CCn1c([C@@H](C)NS(=O)(=O)c2ccc(F)c(CN)c2)nc2ccc(C(F)(F)F)cc21 [Example 134, 3-(Aminomethyl)-N-[(1R)-1-[1-ethyl-6-(trifluoromethyl)-1H-benzimidazol-2-yl]ethyl]-4-fluorobenzenesulfonamide] | 95%
13 | CCn1c(C(C)(C)NS(=O)(=O)c2ccc(Cl)cc2)nc2ccc(C(F)(F)F)cc21 [Example 136, 4-Chloro-N-{1-[1-ethyl-6-(trifluoromethyl)-1H-benzimidazol-2-yl]-1-methylethyl}benzenesulfon-amide] | 82.9%
14 | CCn1c(C(C)(C)NS(=O)(=O)c2ccc(F)cc2)nc2ccc(C(F)(F)F)cc21 [Example 137, N-[1-(1-Ethyl-6-trifluoromethyl-1H-benzoimidazol-2-yl)-1-methyl-ethyl]-4-fluoro-benzenesulfonamide] | 88.8%
15 | CCn1c(C(C)(C)NS(=O)(=O)c2ccc(C#N)cc2)nc2ccc(C(F)(F)F)cc21 [Example 138, 4-Cyano-N-[1-(1-ethyl-6-trifluoromethyl-1H-benzoimidazol-2-yl)-1-methyl-ethyl]-benzenesulfonamide] | 78.4%
16 | CCn1c(C(C)(C)NS(=O)(=O)c2ccccc2)nc2ccc(C(F)(F)F)cc21 [Example 139, N-{(1R)-1-[1-Ethyl-6-(trifluoromethyl)-1H-benzimidazol-2-yl]-1-methyl-ethyl}benzenesulfonamide] | 88.3%
17 | CCn1c(C(C)(C)NS(=O)(=O)c2ccc(C#N)nc2)nc2ccc(C(F)(F)F)cc21 [Example 140, 6-Cyano-N-(2-(1-ethyl-6-(trifluoromethyl)-1H-0 benzo[d]imidazol-2-yl)propan-2-yl)pyridine-3-sulfonamide] | 82.9%
18 | CCn1c(C(C)(C)NS(=O)(=O)c2ccc(C(N)=O)nc2)nc2ccc(C(F)(F)F)cc21 [Example 141, 5-(N-(2-(1-Ethyl-6-(trifluoromethyl)-1H-benzo[d]imidazol-2-yl)propan-2-yl)sulfamoyl)picolinamide] | 82.6%
19 | CCn1c(C2(NS(=O)(=O)c3ccc(Cl)cc3)CC2)nc2ccc(C(F)(F)F)cc21 [Example 142, 4-Chloro-N-{1-[1-ethyl-6-(trifluoromethyl)-1H-benzimidazol-2-yl]cyclopropyl}benzenesulfon amide] | 80.5%
20 | CCn1c(C2(NS(=O)(=O)c3ccc(F)cc3)CCC2)nc2ccc(C(F)(F)F)cc21 [Example 143, N-[1-(1-Ethyl-6-trifluoromethyl-1H-benzoimidazol-2-yl)-cyclobutyl]-4-fluoro-benzenesulfonamide] | 84.7%
21 | CCn1c([C@@H](C)NS(=O)(=O)c2ccc(Cl)cc2)nc2cnc(OC)cc21 [Example 144, (R)-4-Chloro-N-(1-(1-ethyl-6-methoxy-1H-imidazo[4,5-c]pyridin-2-yl)ethyl)benzenesulfonamide] | 90.7%
22 | CCn1c([C@@H](C)NS(=O)(=O)c2ccc(C#N)cc2)nc2cnc(C(F)(F)F)cc21 [Example 146, (R)-4-Cyano-N-(1-(1-ethyl-6-(trifluoromethyl)-1H-imidazo[4,5-c]pyridin-2-yl)ethyl)benzenesulfonamide] | 91.8%
23 | CCn1c([C@@H](C)NS(=O)(=O)c2ccc(Cl)cc2)nc2cnc(C(F)(F)F)cc21 [Example 147, (R)-4-Chloro-N-(1-(1-ethyl-6-(trifluoromethyl)-1H-imidazo[4,5-c]pyridin-2-yl)ethyl)benzenesulfonamide] | 95.9%
24 | CCn1c([C@@H](C)NS(=O)(=O)c2ccc(C#N)nc2)nc2cnc(C(F)(F)F)cc21 [Example 148, (R)-6-Cyano-N-(1-(1-ethyl-6-(trifluoromethyl)-1H-imidazo[4,5-c]pyridin-2-yl)ethyl)pyridine-3-sulfonamide] | 93%
25 | CCn1c([C@@H](C)NS(=O)(=O)c2ccc(C(N)=O)nc2)nc2cnc(C(F)(F)F)cc21 [Example 149, (R)-5-(N-(1-(1-Ethyl-6-(trifluoromethyl)-1H-imidazo[4,5-c]pyridin-2-yl)ethyl)sulfamoyl)picolinamide] | 93.3%

— patent US20100029643A1 (ASTRAZENECA AB, priority 2006, published 2010)
